Tests used:
Detroit-562 cells = experiment: Tumor uptake by ex vivo optical imaging, orthotopic human head and neck cancer model; type: in vivo, Balb/c nu/nu mice; conditions: ex vivo tongue, 24 hours after iv 3 nmol/mouse
Description: Parallel experiments were performed in an animal model of human head and neck cancer (orthotopic), using Detroit-562 cells, overexpressing in particular integrin receptor αvβ6. Briefly, the human pharyngeal carcinoma cells Detroit-562 (ATCC, CCL-138) were cultured in Eagle's Minimum Essential Medium (EMEM) supplemented with 10% Fetal Bovine Serum (FBS), 2 mM glutamine, 100 IU/mL penicillin, 100 μg/mL streptomycin. Male Balb/c nu/nu mice, 4-6 weeks of age (Charles River Laboratories), underwent orthotopic implantation in the anterior portion of the tongue of about 2.5 million cells suspended in 0.03 mL di EMEM. Mice were housed 4 per cage with food and water ad libitum. Animals were fed with VRF1 (P) sterile diet (Special Diets Services Ltd) up to the end of the acclimation period (5 days). Then, AIN-76a rodent diet irradiated (Research Diets), a special diet that reduces auto-fluorescence, was used up to the end of the experiments. Tumor growth was monitored by longitudinal assessments using a caliper up to the target size of 10-20 mm^3 (7-10 days after cell implantation).
Imaging experiments were performed using the preclinical optical system IVIS Spectrum (Perkin Elmer). Animals were intravenously injected (lateral tail vein) with 3 nmol/mouse, at 24 hours post-administration were euthanized by anesthesia overdose, and the tongues were excised for ex vivo optical imaging. […]

[1] = tested on: WM-266-4 human melanoma cells; experiment: Cell uptake by flow cytometry (FACS); type: cell-based
Description: The human melanoma cell line WM-266-4 (ATCC, CRL-1676) was used as in vitro model to assess the cell uptake of representative integrin-binding Compounds 1 and 3, based on the high expression of the integrin receptors, particularly αvβ3, on the membrane of these cells (Capasso et al., PlosOne 2014).
Adherent cells at about 70% confluence were incubated with the compounds 1 or 3 (1 μM) for 2h at 37° C. (5% CO2) in presence of Dulbecco's Modified Eagle's Medium (DMEM) supplemented with 10% FBS, 2 mM glutamine, 100 IU/mL penicillin and 100 μg/mL streptomycin. After two washing steps with PBS, cells were detached using 0.1 mM EDTA in PBS, centrifuged and suspended in buffer (PBS, 0.5% BSA, 0.1% NaN3) for flow cytometry experiments. Fluorescence Activated Cell Sorting (FACS) was used to detect the fluorescence signal within the cells, as measure of cell uptake. Samples were excited with an Argon laser and the emission detected using a 670 nm longpass filter. Values of fluorescence intensity were obtained from the histogram statistic produced by the instrument software.
The residual internalization was calculated by considering the value of fluorescence intensity in absence of the competitor as 100%.
Furthermore, to assess the effect of biological fluids on the cell uptake, parallel experiments were performed incubating the cells with a compounds of the invention in presence of human serum from male AB plasma (Sigma Aldrich, H4522) or human albumin (Sigma Aldrich, A9511). The residual internalization was calculated by considering the value of fluorescence intensity in absence of the serum as 100%. Such uptake assessment also represents an indication of the percentage of compound which is sequestered by the plasma proteins, in particular albumin, when it diffuses through the vascular compartment before reaching the tissue of interest and the particular targeted receptor.

[2] = target: T1, human recombinant integrin αvβ3 (Homo sapiens, UniProt P05106+P06756); experiment: Integrin receptor affinity ELISA (vitronectin-coated plates); type: binding; conditions: tested in duplicate; read-out: Receptor affinity (IC50)
T1 construct: purchased R&D Systems

[3] = target: T2, human serum albumin (HSA) (Homo sapiens, UniProt P02768); experiment: Binding affinity to human serum albumin (absorbance peak shift or ultrafiltration method); conditions: phosphate buffer, 25° C., one of the two methods; read-out: HSA affinity (KA) (converted)
T2 construct: purchased Sigma Aldrich A9511
Description: Binding affinity to human serum albumin (HSA; Sigma Aldrich, A9511) was measured using two methods, according to the level of binding affinity of the compounds.
The first method, optimal for compounds which strongly interact with HSA, is based on the analysis of the absorbance spectrum peak shift after the incubation of the dye in solutions containing HSA. Briefly, the samples were incubated at a fixed concentration (1 μM) with HSA dilutions (1×10^−6-4×10^−4M), in phosphate buffer for 5 min in the spectrophotometer at 25° C. before measurements. The measure was performed at the maximum absorbance wavelength of the shifted peak.
The second method, optimal for compound with low affinity for HSA, is based on measuring the variation of the absorbance of solutions containing the dye and various concentrations of HSA after ultrafiltration. Briefly, each compound was incubated at a fixed concentration (2 μM) with HSA dilutions (1×10^−6-4×10^−4 M), in phosphate buffer. The samples were centrifuged (10,000 g for 30 min at 25° C.) in a Microcon device (10 kDa MWCO, Amicon Ultra-0.5 Centrifugal Filter Unit with Ultracel-10 membrane, Millipore) and the absorbance measurements of the filtrates were obtained with the spectrophotometer at the maximum absorbance wavelength of the fluorophore.
For both methods, the affinity constant (KA, M^−1) was calculated by fitting the raw data with the following formula:
wherein ΔA/b=Absorbance measured (b=1 cm) KRL=KA calculated by regression analysis (curve fitting) Δε·Rt calculated by regression analysis (curve fitting) [L]=Albumin concentration
In the first method, ΔA/b corresponds to the absorbance measured for each sample, whereas in the second method ΔA/b is obtained subtracting the absorbance of the control sample (dye without HSA) to the absorbance of each other sample.
However, the measurement of the affinity constant is more precise when the suitable method is used as a function of the affinity level of the compound.

IC50 [2]: 0.00296 ± 0.00049 µM | Kd [3]: 159 µM
SMILES: CC(CC[N+]1=C(/C=C/C=C/C=C/C=C2/N(CCCCCC(=O)NCCCC[C@@H]3NC(=O)C(Cc4ccccc4)NC(=O)[C@H](CC(=O)O)NC(=O)CNC(=O)[C@H](CCCNC(=N)N)NC3=O)c3ccc(C(=O)NCC(O)C(O)C(O)C(O)CO)cc3C2(C)C)C(C)(C)c2cc(C(=O)NCC(O)C(O)C(O)C(O)CO)ccc21)S(=O)(=O)[O-] (stereo partly drawn) [Compound 1]
Tumor-to-background contrast (Detroit-562 cells): high tumor-to-background contrast | Residual uptake in the presence of 4% HSA ([1]; 1 μM, 2h at 37° C.): 70% | Residual cell uptake in presence of human serum ([1]; 1 μM, 2h at 37° C., uptake without serum = 100%): 80% | Residual uptake in the presence of c(RGDfK) as competitor ([1]; 100 μM c(RGDfK), uptake without competitor = 100%): 10%

From patent US20220242853A1, “MODIFIED CYANINE DYES AND CONJUGATES THEREOF” (BRACCO IMAGING S.P.A., priority 2019, published 2022)
